Reference: patent US7220784B2, “Substituted stilbenes and their reactions” (priority 2000, dated 2007)

Assays:
[1] = Photoisomerisation of trans-CA-4 ex situ, composition of mixture (GC); format: physicochemical
[2] = tested on: liver metastatic T50:80 tumours; assay: Anti-vascular effects, histological examination of T50:80 tumours; format: in vivo, mice
Description: (2) Competition for the colchicine binding site on tubulin. The figure quoted represents the % of ^3H-colchicine bound following co-incubation of test compound and ^3H-cochicine with isolated tubulin. Where ester pro-drugs were used the experiments were carried out in the presence and absence of porcine liver esterase. • (3) Cytotoxicity/growth inhibition assay. This was carried out by the MTT assay. • (4) Permeability (shape-change) assay in endothelial cells. This was carried out using a method based on that of Watts et al. (Anticancer Res., 17, 71–75, (1997)). This involved the diffusion of a fluorescently labelled dextran through a barrier of endothelial cells (HUVEC) grown to confluence on a porous membrane. […] The anti-vascular effects of the agents were monitored by either positron emission tomography (PET) or by histologogical examination following treatment of mice bearing T50:80 murine breast tumours, or H460 human lung tumours. • (6) Anti-tumour efficacy of agents was determined in xenografts of H460 human lung cancer. Animals (n=5) were trated either with 5 daily injections and tumour size measured with time following treatment. • (7) The pharmacokinetic profile of agents was determined in mice following injection with drug. Blood was taken at various times following treatment and analysed by HPLC with UV detection. […]

[3] = GC, benzene, 400 W Hg lamp, 0 mins (Table 3)
[4] = GC, benzene, 400 W Hg lamp, 0.5 mins (Table 3)
[5] = GC, benzene, 400 W Hg lamp, 1.5 mins (Table 3)
[6] = GC, benzene, 400 W Hg lamp, 3.0 mins (Table 3)
[7] = GC, benzene, 400 W Hg lamp, 5.0 mins (Table 3)
[8] = GC, benzene, 400 W Hg lamp, 6.5 mins (Table 3)
[9] = GC, benzene, 400 W Hg lamp, 8.0 mins (Table 3)
[10] = GC, benzene, 400 W Hg lamp, 10.0 mins (Table 3)
[11] = GC, benzene, 400 W Hg lamp, 12.5 mins (Table 3)
[12] = GC, benzene, 400 W Hg lamp, 15.0 mins (Table 3)
[13] = GC, benzene, 400 W Hg lamp, 17.5 mins (Table 3)
[14] = GC, benzene, 400 W Hg lamp, 20.0 mins (Table 3)
[15] = photoisomerisation ex situ, 0 mins (Table 5)
[16] = photoisomerisation ex situ, 0.5 mins (Table 5)
[17] = photoisomerisation ex situ, 1.0 mins (Table 5)
[18] = photoisomerisation ex situ, 1.5 mins (Table 5)
[19] = photoisomerisation ex situ, 2.0 mins (Table 5)
[20] = photoisomerisation ex situ, 3.0 mins (Table 5)
[21] = photoisomerisation ex situ, 4.0 mins (Table 5)
[22] = photoisomerisation ex situ, 5.0 mins (Table 5)
[23] = photoisomerisation ex situ, 7.5 mins (Table 5)
[24] = photoisomerisation ex situ, 10.0 mins (Table 5)
[25] = photoisomerisation ex situ, 12.5 mins (Table 5)
[26] = photoisomerisation ex situ, 15.0 mins (Table 5)
[27] = photoisomerisation ex situ, 17.5 mins (Table 5)
[28] = photoisomerisation ex situ, 20.0 mins (Table 5)

## COc1ccc(/C=C/c2cc(OC)c(OC)c(OC)c2)cc1O [trans-CA-4, trans-combretastatin A-4]
[1]; [3]
  % cis-stilbene: 0%
  % phenanthrene: 0%
  % trans-stilbene: 100%
[1]; [4]
  % cis-stilbene: 0%
  % phenanthrene: 0%
  % trans-stilbene: 100%
[1]; [5]
  % cis-stilbene: 0%
  % phenanthrene: 0%
  % trans-stilbene: 100%
[1]; [6]
  % cis-stilbene: 13%
  % phenanthrene: 0%
  % trans-stilbene: 87%
[1]; [7]
  % cis-stilbene: 31%
  % phenanthrene: 0%
  % trans-stilbene: 69%
[1]; [8]
  % cis-stilbene: 45%
  % phenanthrene: 0%
  % trans-stilbene: 55%
[1]; [9]
  % cis-stilbene: 47%
  % phenanthrene: 0%
  % trans-stilbene: 53%
[1]; [10]
  % cis-stilbene: 53%
  % phenanthrene: 0%
  % trans-stilbene: 44%
[1]; [11]
  % cis-stilbene: 68%
  % phenanthrene: 0%
  % trans-stilbene: 32%
[1]; [12]
  % cis-stilbene: 71%
  % phenanthrene: 0%
  % trans-stilbene: 29%
[1]; [13]
  % cis-stilbene: 74%
  % phenanthrene: 4%
  % trans-stilbene: 22%
[1]; [14]
  % cis-stilbene: 73%
  % phenanthrene: 4%
  % trans-stilbene: 23%
[1]; [15]
  % cis: 0.3%
  % phenanthrene: 0%
  % trans: 99.7%
[1]; [16]
  % cis: 2.0%
  % phenanthrene: 0%
  % trans: 98.0%
[1]; [17]
  % cis: 3.9%
  % phenanthrene: 0%
  % trans: 96.1%
[1]; [18]
  % cis: 6.3%
  % phenanthrene: 0%
  % trans: 93.7%
[1]; [19]
  % cis: 7.3%
  % phenanthrene: 0%
  % trans: 92.7%
[1]; [20]
  % cis: 25.7%
  % phenanthrene: 0%
  % trans: 74.3%
[1]; [21]
  % cis: 37.3%
  % phenanthrene: 0%
  % trans: 62.3%
[1]; [22]
  % cis: 47.9%
  % phenanthrene: 0%
  % trans: 52.1%
[1]; [23]
  % cis: 56.6%
  % phenanthrene: 1.4%
  % trans: 40.2%
[1]; [24]
  % cis: 63.1%
  % phenanthrene: 2.9%
  % trans: 34.0%
[1]; [25]
  % cis: 64.4%
  % phenanthrene: 3.4%
  % trans: 32.2%
[1]; [26]
  % cis: 64.6%
  % phenanthrene: 3.7%
  % trans: 31.7%
[1]; [27]
  % cis: 65.1%
  % phenanthrene: 4.1%
  % trans: 30.8%
[1]; [28]
  % cis: 65.7%
  % phenanthrene: 3.7%
  % trans: 30.6%

## COc1ccc(C=Cc2cc(OC)c(OC)c(OC)c2)cc1F [Compound 97-64H]
[2]; 2/3 or 3/4 of MTD, 2 hr, 4 hr, 24 hr, 48 hr after administration
  examination of tumours for vascular damage: tumour necrosis, blocked vessels, infiltration with red blood cells
[2]; mouse, in vivo
  time by which vascular effects are seen: ≤ 2 h
